Read-outs that look alike come from different tables or passages of the source.
What was measured:
methionine gamma-lyase = molecular target: T1, methionine gamma-lyase (Pseudomonas putida, UniProt P13254); settings: cited from earlier work; for inhibition of methionine gamma-lyase (in words): at concentrations between 0.1 mM and 10 mM
T1 sequence (P13254 1-398): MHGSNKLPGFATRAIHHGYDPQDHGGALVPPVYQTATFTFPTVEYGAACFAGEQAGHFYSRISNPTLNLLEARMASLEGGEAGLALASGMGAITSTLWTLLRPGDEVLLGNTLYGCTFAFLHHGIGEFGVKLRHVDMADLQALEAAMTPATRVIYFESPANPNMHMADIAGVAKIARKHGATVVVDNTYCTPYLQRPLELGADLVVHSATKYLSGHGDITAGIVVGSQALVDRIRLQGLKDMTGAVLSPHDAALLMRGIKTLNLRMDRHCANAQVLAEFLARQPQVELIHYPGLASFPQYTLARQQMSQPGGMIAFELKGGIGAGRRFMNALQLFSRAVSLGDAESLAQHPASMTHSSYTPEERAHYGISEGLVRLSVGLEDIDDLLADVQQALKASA

[1] = molecular target: T2, methionine gamma-lyase from Pseudomonas putida ICR 3460 (Pseudomonas putida, UniProt P13254); design: methionine gamma-lyase purified from Pseudomonas putida ICR 3460; host or cells: Pseudomonas putida ICR 3460 (enzyme purified from the organism itself); settings: cited from earlier work; for Vmax as a substrate for methionine gamma-lyase: maximum velocity at saturating substrate concentrations; for Km / Vmax: purified enzyme from Pseudomonas putida ICR 3460
T2 sequence (P13254 1-398): T1 sequence (P13254 1-398)

[2] = molecular target: T2, methionine gamma-lyase from Pseudomonas putida ICR 3460
Experimental: The 2-ketobutyrate produced in the reaction is quantitated by reaction with lactic dehydrogenase and NADH, and the rate of decrease in the absorbance at 340 nm is monitored.
Stock solutions for the coupled spectrophotometric assay are prepared as follows:
Potassiumphosphate buffer, 100 mM, pH 8.0 containing 0.01 mM pyridoxal 5'-phosphate
NADH in deionized water, 5 mg/ml
Lactate dehydrogenase, crystalline suspension from rabbit muscle in 3.2M ammonium sulfate containing 9.6 mg protein/ml, with a specific activity of 800-1200 units per milligram (Sigma)
The assay mixture is prepared as follows:
A background reading of the absorbance at 340 nm was made. Enzyme solution (10 microliters, appropriately diluted to produce a change of absorbance at 340 nm between 0.1 and 1 absorbance unit per minute) is then added, and the rate of decrease in the absorbance at 340 nm is measured using a spectrophotometer.
One unit of methionine gamma-lyase activity is that amount of enzyme that causes the oxidation of 1 micromole of NADH per minute at room temperature under the assay conditions described above.

Row | Compound | inhibition of methionine gamma-lyase (in words) (methionine gamma-lyase) | activity as a substrate of methionine gamma-lyase (in words) [1] | inhibition of methionine gamma-lyase by thiol compounds (in words) (methionine gamma-lyase) | further results
1 | C[C@@H](O)[C@H](N)C(=O)O [L-Threonine] | Nor do these amino acids inhibit methionine gamma-lyase appreciably | either very poor substrates or do not react at all |  | 
2 | N[C@@H](CS)C(=O)O [L-cysteine] |  | low activity |  | 
3 | N[C@@H](CCS)C(=O)O [L-homocysteine] |  | excellent substrates |  | activity of the purified methionine gamma-lyase ([2]; L-homocysteine as substrate at a concentration of 2.5 mM): approximately 36 units per milligram; Vmax as a substrate for methionine gamma-lyase [1]: 36 micromoles per minute per milligram of pure protein; Km [1]: ≤ 1000 µM; Vmax [1]: 36 µmol/min/mg; Km ([1]; listed as L-Homocysteine): 430 µM
4 | N[C@@H](CCO)C(=O)O [L-homoserine] | Nor do these amino acids inhibit methionine gamma-lyase appreciably | either very poor substrates or do not react at all |  | 
5 | CSCC[C@H](N)C(=O)O [L-methionine] |  | excellent substrates |  | specific activity of purified methionine gamma-lyase ([2]; L-methionine as substrate, room temperature, pH 8.0, 1 unit = 1 micromole NADH oxidized per minute): approximately 20 units per milligram; Vmax as a substrate for methionine gamma-lyase [1]: about 20 micromoles per minute per milligram of pure protein; Km [1]: ≤ 1000 µM; Vmax [1]: 20.4 µmol/min/mg; Km ([1]; listed as L-Methionine): 1000 µM
6 | N[C@@H](CO)C(=O)O [L-serine] | Nor do these amino acids inhibit methionine gamma-lyase appreciably | either very poor substrates or do not react at all |  | 
7 | N[C@@H](Cc1c[nH]c2ccccc12)C(=O)O [L-tryptophan] | Nor do these amino acids inhibit methionine gamma-lyase appreciably | either very poor substrates or do not react at all |  | 
8 | N[C@@H](Cc1ccc(O)cc1)C(=O)O [L-tyrosine] | Nor do these amino acids inhibit methionine gamma-lyase appreciably | either very poor substrates or do not react at all |  | 
9 | O[C@H](CS)[C@@H](O)CS [dithioerythritol] |  | not acted on by the enzyme | nor do they inhibit the enzyme | 
10 | O[C@H](CS)[C@H](O)CS [dithiothreitol] |  | not acted on by the enzyme | nor do they inhibit the enzyme | 
11 | CC(=O)S [thioacetic acid] |  | not acted on by the enzyme | nor do they inhibit the enzyme | 
12 | OCCS [β-mercaptoethanol] |  | not acted on by the enzyme | nor do they inhibit the enzyme | 

Source: patent US5885767A (BioCatalytics, Inc., priority 1998, dated 1999)
